# Assay results reported in patent publication US8163763B2, “Pyrimidine compounds, compositions and methods of use” (Genentech, Inc., priority 2008, dated 2012).
# Molecular target: mTOR kinase (purified recombinant mTOR(1360-2549)+GBL) (Homo sapiens, UniProt P42345)
# Experiment: In vitro mTOR kinase assay (TR-FRET)
# Assay type: biochemical
# Details: class of Ki in the mTOR kinase assay; read-out: mTOR Activity Level
# Source text: a. In vitro mTOR Kinase Assay
# The reaction is stopped by an addition of a Terbium-labeled phospho-specific antibody, e.g., Tb-labeled anti-p4E-BP1 T37/T46, (Invitrogen, product #PR8835A), EDTA, and TR-FRET buffer solution (Invitrogen, Product #PR3756B). Product formation is detected by way of time-resolved fluorescence resonance energy transfer (TR-FRET), which occurs when the phosphorylated substrate and labeled antibody are in close proximity due to phospho-specific binding. Enzymatic activity is measured as an increase in TR-FRET signal using a Perkin Elmer Envision plate reader.
# Compound activity is tested in 10 point dose curves starting at the highest final concentration of 10 uM. They are serially diluted in 100% DMSO prior to further dilution with assay buffer. […] 8 μL of solution containing 2 nM Tb-anti-p4E-BP1 antibody & 10 mM EDTA diluted TR-FRET buffer is then added and incubated for 30 minutes to stop the reaction. The plate is scanned with the Envision plate reader. Ki values are calculated in Assay Explorer using the Morrison ATP-competitive tight binding equation for Ki apparent determination.
# Chain of mTOR kinase (purified recombinant mTOR(1360-2549)+GBL) (P42345 1360-2549): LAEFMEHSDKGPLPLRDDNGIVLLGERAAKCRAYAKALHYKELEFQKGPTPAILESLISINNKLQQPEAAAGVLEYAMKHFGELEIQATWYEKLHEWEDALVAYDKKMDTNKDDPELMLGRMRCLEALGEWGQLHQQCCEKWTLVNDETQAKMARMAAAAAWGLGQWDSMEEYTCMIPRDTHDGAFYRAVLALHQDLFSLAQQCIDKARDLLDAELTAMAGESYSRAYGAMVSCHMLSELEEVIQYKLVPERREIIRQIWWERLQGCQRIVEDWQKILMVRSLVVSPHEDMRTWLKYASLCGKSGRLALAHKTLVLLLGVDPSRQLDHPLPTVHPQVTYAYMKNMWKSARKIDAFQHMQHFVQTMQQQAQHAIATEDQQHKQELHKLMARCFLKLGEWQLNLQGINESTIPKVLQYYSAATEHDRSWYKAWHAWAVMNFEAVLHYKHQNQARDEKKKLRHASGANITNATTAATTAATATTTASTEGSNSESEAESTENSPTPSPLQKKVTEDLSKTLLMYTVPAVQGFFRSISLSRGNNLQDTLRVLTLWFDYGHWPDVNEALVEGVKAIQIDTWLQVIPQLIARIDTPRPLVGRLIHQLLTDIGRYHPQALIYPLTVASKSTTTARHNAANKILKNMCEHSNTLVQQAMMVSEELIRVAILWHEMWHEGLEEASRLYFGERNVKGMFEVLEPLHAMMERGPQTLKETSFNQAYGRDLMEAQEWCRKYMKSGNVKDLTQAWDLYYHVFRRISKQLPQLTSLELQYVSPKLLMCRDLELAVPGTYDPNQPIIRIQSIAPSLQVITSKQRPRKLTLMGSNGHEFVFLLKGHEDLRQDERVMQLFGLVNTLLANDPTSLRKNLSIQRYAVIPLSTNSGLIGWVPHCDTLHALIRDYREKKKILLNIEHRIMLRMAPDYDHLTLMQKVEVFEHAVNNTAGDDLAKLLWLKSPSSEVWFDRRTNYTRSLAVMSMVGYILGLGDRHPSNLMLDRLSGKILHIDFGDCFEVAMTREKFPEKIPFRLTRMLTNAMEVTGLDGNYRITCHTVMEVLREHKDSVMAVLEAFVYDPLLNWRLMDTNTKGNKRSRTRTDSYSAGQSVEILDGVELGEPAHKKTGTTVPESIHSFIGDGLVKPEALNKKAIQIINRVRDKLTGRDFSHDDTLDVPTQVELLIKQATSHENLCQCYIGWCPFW
# Chain of mTOR kinase (purified recombinant mTOR(1360-2549)+GBL) (Q9BVC4 whole entry partner): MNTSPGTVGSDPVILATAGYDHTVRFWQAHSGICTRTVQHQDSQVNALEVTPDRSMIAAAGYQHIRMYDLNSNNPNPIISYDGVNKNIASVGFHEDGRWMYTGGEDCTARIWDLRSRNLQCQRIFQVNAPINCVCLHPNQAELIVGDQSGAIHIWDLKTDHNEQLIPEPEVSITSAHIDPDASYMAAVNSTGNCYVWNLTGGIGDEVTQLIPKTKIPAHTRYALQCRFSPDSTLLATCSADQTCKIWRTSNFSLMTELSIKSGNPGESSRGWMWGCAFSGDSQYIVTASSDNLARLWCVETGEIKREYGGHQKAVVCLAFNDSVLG
row,SMILES,Ki [nM]
1,c1cnc(N2CCc3c(nc(-c4ccc5[nH]ncc5c4)nc3N3CCOCC3)C2)nc1 [drawing 585],100 to 5000
2,CCNC(=O)Nc1ccc(-c2nc3c(c(N4CCCOCC4)n2)CN(C(=O)OCc2ccccc2)C3)cc1 [drawing 567],< 100
3,CCNC(=O)Nc1ccc(-c2nc3c(c(N4CCOCC4)n2)CCN(c2ccnc(N)n2)C3)cc1,< 100
4,CCNC(=O)Nc1ccc(-c2nc3c(c(N4CCOCC4)n2)CN(C(=O)c2ccccn2)CC3)cc1,< 100
5,CCNC(=O)Nc1ccc(-c2nc3c(c(N4CCCOCC4)n2)CN(S(=O)(=O)c2ccccc2)C3)cc1,< 100
6,CCNC(=O)Nc1ccc(-c2nc3c(c(N4CCOCC4)n2)CN(C(=O)c2ccccc2Cl)CC3)cc1,< 100
7,CCNC(=O)Nc1ccc(-c2nc3c(c(N4CCOCC4)n2)CNCC3)cc1,< 100
8,CCNC(=O)Nc1ccc(-c2nc3c(c(N4CCOCC4)n2)CN(C(=O)OCC)C3)cc1,< 100
9,CCNC(=O)Nc1ccc(-c2nc3c(c(N4CCOCC4)n2)CN(c2ccnc(N)n2)C3)cc1,< 100
10,CCNC(=O)Nc1ccc(-c2nc3c(c(N4CCOCC4)n2)CN(C(=O)c2ccncc2)CC3)cc1,< 100
11,CCNC(=O)Nc1ccc(-c2nc3c(c(C4CCOCC4)n2)CN(C(=O)OC(C)(C)C)C3)cc1,100 to 5000
12,O=C(Nc1ccc(-c2nc3c(c(N4CCOCC4)n2)CN(c2ncccn2)C3)cc1)NC1CCCC1 [drawing 572],< 100
13,CCNC(=O)Nc1ccc(-c2nc3c(c(N4CCOCC4)n2)CN(C(=O)OCc2ccccc2)C3)cc1,< 100
14,CCNC(=O)Nc1ccc(-c2nc3c(c(N4CCOCC4)n2)CN(C(=O)/C=C/c2ccccc2)CC3)cc1,< 100
15,NC(=O)c1ccc(-c2nc3c(c(N4CCOCC4)n2)CN(c2ncccn2)C3)cc1,100 to 5000
16,CCNC(=O)Nc1ccc(-c2nc3c(c(N4CCOCC4)n2)CN(Cc2ccccc2)C3)cc1,< 100
17,CC(C)(C)OC(=O)N1Cc2nc(-c3cnc(N)nc3)nc(N3CCOCC3)c2C1,100 to 5000
18,CCNC(=O)Nc1ccc(-c2nc3c(c(N4CCOCC4)n2)CCN(C(=O)c2ccnn2C)C3)cc1,< 100
19,CNC(=O)Nc1ccc(-c2nc3c(c(N4CCOCC4)n2)CN(Cc2ccc(OC)cc2)C3=O)cc1,< 100
20,O=C(NCCO)Nc1ccc(-c2nc3c(c(N4CCOCC4)n2)CCN(c2ncccn2)C3)cc1,100 to 5000
21,Nc1ccc(-c2nc3c(c(N4CCOCC4)n2)CCN(c2ncccn2)C3)cc1,100 to 5000
22,CCNC(=O)Nc1ccc(-c2nc3c(c(C4=CCOCC4)n2)CCN(c2ncccn2)C3)cc1,100 to 5000
23,CCNC(=O)Nc1ccc(-c2nc3c(c(N4CCOCC4)n2)CN(C(=O)c2ccc(Cl)cc2)CC3)cc1,< 100

row,SMILES,Ki [nM]
1,CCNC(=O)Nc1ccc(-c2nc3c(c(N4CCOCC4)n2)CCN(C(=O)c2cocn2)C3)cc1,< 100
2,CCNC(=O)Nc1ccc(-c2nc3c(c(-c4cccnc4)n2)CCN(Cc2ccccc2)C3)cc1,100 to 5000
3,CCNC(=O)Nc1ccc(-c2nc3c(c(N4CCOCC4)n2)CN(c2ccnc(N)n2)CC3)cc1,< 100
4,CCNC(=O)Nc1ccc(-c2nc3c(c(N4CCOC[C@@H]4C)n2)CCN(C(=O)OC(C)(C)C)C3)cc1,< 100
5,CCNC(=O)Nc1ccc(-c2nc3c(c(N4CCOCC4)n2)CCN(C(=O)c2ccncc2)C3)cc1,< 100
6,CCNC(=O)Nc1ccc(-c2nc3c(c(N4CCOC[C@@H]4C)n2)CN(c2ccnc(N)n2)CC3)cc1,< 100
7,CN(C)C(=O)Nc1ccc(-c2nc3c(c(N4CCOCC4)n2)CN(c2ncccn2)C3)cc1,100 to 5000
8,CS(=O)(=O)Nc1ccc(-c2nc3c(c(N4CCOCC4)n2)CN(c2ncccn2)C3)cc1,100 to 5000
9,CCNC(=O)Nc1ccc(-c2nc3c(c(N4CCOCC4)n2)CN(C(=O)Cc2ccccc2)CC3)cc1 [drawing 603],< 100
10,CCNC(=O)Nc1ccc(-c2nc3c(c(N4CCOCC4)n2)CCN(C(=O)N2CCOCC2)C3)cc1,< 100
11,O=C(Nc1ccc(-c2nc3c(c(N4CCOCC4)n2)CCN(c2ncccn2)C3)cc1)NC1CCC1,< 100
12,CCNC(=O)Nc1ccc(-c2nc3c(c(N4CCOCC4)n2)CN(C2CCN(C(C)=O)CC2)C3)cc1,< 100
13,CCNC(=O)Nc1ccc(-c2nc3c(c(N4CCOCC4)n2)CN(Cc2ccc(O)cc2)C3)cc1,< 100
14,COc1ccc(CN2Cc3c(nc(-c4cnc(N)nc4)nc3N3CCOCC3)C2=O)cc1,100 to 5000
15,O=C(NCC1CC1)Nc1ccc(-c2nc3c(c(N4CCOCC4)n2)CCN(c2ncccn2)C3)cc1,< 100
16,CCNC(=O)Nc1ccc(-c2nc3c(c(C4CCOCC4)n2)CCN(c2ncccn2)C3)cc1,100 to 5000
17,CCNC(=O)Nc1ccc(-c2nc3c(c(N4CCCOCC4)n2)CN(C(=O)OC(C)(C)C)C3)cc1,< 100
18,O=c1[nH]c2ccc(-c3nc4c(c(N5CCOCC5)n3)CCN(c3ncccn3)C4)cc2[nH]1,100 to 5000
19,CCNC(=O)Nc1ccc(-c2nc3c(c(N4CCOCC4)n2)CN(Cc2cccc(O)c2)C3)cc1 [drawing 553],< 100
20,CCNC(=O)Nc1ccc(-c2nc3c(c(N4CCOC[C@@H]4C)n2)CCN(c2ccnc(N)n2)C3)cc1,< 100
21,CCNC(=O)Nc1ccc(-c2nc3c(c(N4CCOCC4)n2)CCN(C2CCN(C)CC2)C3)cc1,< 100
22,O=C(Nc1ccc(-c2nc3c(c(N4CCOCC4)n2)CCN(c2ncccn2)C3)cc1)NC1CC1,< 100
23,CCNC(=O)Nc1ccc(-c2nc3c(c(N4CCOCC4)n2)CCN(c2ncccn2)C3)cc1,< 100

row,SMILES,Ki [nM]
1,CCNC(=O)Nc1ccc(-c2nc3c(c(N4CCOC[C@@H]4C)n2)CCNC3)cc1,< 100
2,Cc1nnc(-c2ccc(-c3nc4c(c(N5CCOCC5)n3)CCN(c3ncccn3)C4)cc2)o1,100 to 5000
3,CC(=O)Nc1ccc(-c2nc3c(c(N4CCOCC4)n2)CN(c2ncccn2)C3)cc1,100 to 5000
4,CC(=O)Nc1ccc(-c2nc3c(c(N4CCOCC4)n2)CN(Cc2ccccc2)C3=O)cc1,100 to 5000
5,CCNC(=O)Nc1ccc(-c2nc3c(c(N4CCCOCC4)n2)CN(c2ncccn2)C3)cc1,< 100
6,CCNC(=O)Nc1ccc(-c2nc3c(c(N4CCOCC4)n2)CCN(C(=O)[C@H](C)O)C3)cc1,< 100
7,CCNC(=O)Nc1ccc(-c2nc3c(c(N4CCCOCC4)n2)CCN(C(C)=O)C3)cc1,< 100
8,CC(C)NC(=O)Nc1ccc(-c2nc3c(c(N4CCOCC4)n2)CCN(c2ncccn2)C3)cc1,100 to 5000
9,CCNC(=O)Nc1ccc(-c2nc3c(c(N4CCOCC4)n2)CCN(C(=O)OCc2ccccc2)C3)cc1,< 100
10,c1cnc(N2CCc3c(nc(-c4ccc(-n5cccn5)cc4)nc3N3CCOCC3)C2)nc1,100 to 5000
11,CCNC(=O)Nc1ccc(-c2nc3c(c(N4CCCOCC4)n2)CN(S(C)(=O)=O)C3)cc1,< 100
12,CCNC(=O)Nc1ccc(-c2nc3c(c(N4CCCOCC4)n2)CCN(C(=O)OCc2ccccc2)C3)cc1,< 100
13,CC(=O)Nc1cccc(-c2nc3c(c(N4CCOCC4)n2)CN(c2ncccn2)C3)c1,100 to 5000
14,CCNC(=O)Nc1ccc(-c2nc3c(c(N4CCOCC4)n2)CCN(C(=O)c2c(C)oc4ncn(C)c(=O)c24)C3)cc1,< 100
15,CCNC(=O)Nc1ccc(-c2nc3c(c(N4CCOCC4)n2)CCN(C(=O)c2cccnc2)C3)cc1,< 100
16,CCCNC(=O)Nc1ccc(-c2nc3c(c(N4CCOCC4)n2)CCN(c2ncccn2)C3)cc1,100 to 5000
17,CCNC(=O)Nc1ccc(-c2nc3c(c(N4CCCOCC4)n2)CN(C2CCN(C(C)=O)CC2)C3)cc1,< 100
18,CS(=O)(=O)Nc1ccc(-c2nc3c(c(N4CCOCC4)n2)CN(Cc2ccccc2)C3=O)cc1,100 to 5000
19,CCNC(=O)Nc1ccc(-c2nc3c(c(N4CCOCC4)n2)CCN(C(=O)c2cnco2)C3)cc1,< 100
20,CCNC(=O)Nc1ccc(-c2nc3c(c(N4CCOCC4)n2)CCN(C(=O)c2ccccn2)C3)cc1,< 100
21,CCNC(=O)Nc1ccc(-c2nc3c(c(N4CCOC[C@@H]4C)n2)CNCC3)cc1,< 100
22,CCNC(=O)Nc1ccc(-c2nc3c(c(N4CCOCC4)n2)CN(C(=O)c2cccnc2)CC3)cc1,< 100
23,CCNC(=O)Nc1ccc(-c2nc3c(c(N4CCCOCC4)n2)CCN(c2ncccn2)C3)cc1,< 100

# Same assay, conditions: mTOR kinase assay of Example 496; read-out: Ki
row,SMILES,Ki [nM]
1,CC(=O)Nc1ccc(-c2nc3c(c(N4CCCOCC4)n2)CN(Cc2ccccc2)C3=O)cc1,252
2,C[C@H]1COCCN1c1nc(-c2ccc(NC(=O)NCC(F)F)cc2)nc2c1CN(C(=O)c1nccs1)CC2,32
3,CCNC(=O)Nc1ccc(-c2nc3c(c(N4CCCOCC4)n2)CN(C(=O)OCc2ccccc2)C3)cc1 [drawing 625],2
4,CCNC(=O)Nc1ccc(-c2nc3c(c(N4CCOC[C@@H]4C)n2)CCN(c2nc(C)cc(C)n2)C3)cc1,4
5,CCNC(=O)Nc1ccc(-c2nc3c(c(N4CCOCC4)n2)CN(Cc2cccc(O)c2)C3)cc1 [drawing 624],9
6,c1cnc(N2CCc3c(nc(-c4ccc5[nH]ncc5c4)nc3N3CCOCC3)C2)nc1 [drawing 628],636
7,CC(C)(C)OC(=O)N1Cc2nc(-c3cnc(N)nc3)nc(C3C=COCC3)c2C1 (stereo not shown),753
8,CCNC(=O)Nc1ccc(-c2nc3c(c(N4CCOCC4)n2)CN(C(=O)Cc2ccccc2)CC3)cc1 [drawing 633],52
9,CCNC(=O)Nc1ccc(-c2nc3c(c(N4CCOCC4)n2)CCN2C(=O)N(CC)CC[C@@H]32)cc1,5
10,O=C(Nc1ccc(-c2nc3c(c(N4CCOCC4)n2)CN(c2ncccn2)C3)cc1)NC1CCCC1 [drawing 626],41.2
